According to patent publication US8202882B2, “5-cyanothienopyridines for the treatment of tumours” (Merck Patent Gesellschaft MIT Beschränkter Haftung, priority 2007, dated 2012):

Biological target: T1, GST-ALK5 (TGF-beta receptor I kinase) (Homo sapiens, UniProt P36897)
T1 sequence (P36897 34-503): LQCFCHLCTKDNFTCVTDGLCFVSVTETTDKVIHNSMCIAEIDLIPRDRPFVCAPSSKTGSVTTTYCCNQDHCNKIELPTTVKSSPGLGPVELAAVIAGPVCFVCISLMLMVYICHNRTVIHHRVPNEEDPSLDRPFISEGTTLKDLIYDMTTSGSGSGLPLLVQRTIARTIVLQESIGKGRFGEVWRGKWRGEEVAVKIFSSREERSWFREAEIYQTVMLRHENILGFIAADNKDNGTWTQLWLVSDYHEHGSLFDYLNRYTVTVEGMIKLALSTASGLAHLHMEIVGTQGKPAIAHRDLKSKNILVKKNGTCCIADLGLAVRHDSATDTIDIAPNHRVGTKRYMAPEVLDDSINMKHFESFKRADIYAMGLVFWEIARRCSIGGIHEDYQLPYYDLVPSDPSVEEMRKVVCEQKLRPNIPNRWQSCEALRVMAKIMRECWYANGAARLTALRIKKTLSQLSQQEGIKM
Assay: In-vitro (enzyme) kinase assay, 384-well flashplate; inhibition of TGF-beta
Format: biochemical
Conditions: GST-ALK5 with GST-SMAD2 substrate, 3 mM ATP (33P-ATP), 30° C., 45 min
Protocol: In-Vitro (Enzyme) Assay for the Determination of the Efficacy of Inhibitors of the Inhibition of TGF-Beta-Promoted Effects Vermittelten Wirkungen
The kinase assay is carried out as 384-well flashplate assay. 31.2 nM of GST-ALK5, 439 nM of GST-SMAD2 and 3 mM of ATP (with 0.3 μCi of ^33P-ATP/well) are incubated in a total volume of 35 μl (20 mM of HEPES, 10 mM of MgCl, 5 mM of MnCl, 1 mM of DTT, 0.1% of BSA, pH 7.4) without or with test substance (5-10 concentrations) at 30° C. for 45 min. The reaction is stopped using 25 μl of 200 mM EDTA solution, filtered with suction at room temperature after 30 min, and the wells are washed with 3 times 100 μl of 0.9% NaCl solution. Radioactivity is measured in the TopCount. The IC50 values are calculated using RS1.

| SMILES | IC50 |
| --- | --- |
| CCS(=O)(=O)N1CCN(c2nc3sc(C(N)=O)c(N)c3c(-c3cc(C)c(C)o3)c2C#N)CC1 [Compound A53, 3-Amino-5-cyano-4-(4,5-dimethylfuran-2-yl)-6-(4-ethanesulfonylpiperazin-1-yl)thieno[2,3-b]pyridine-2-carboxamide] | 240 nM |
| CN1CCN(CCCNc2nc3sc(C(N)=O)c(N)c3c(-c3cc4ccccc4o3)c2C#N)CC1 [Compound A30, 3-amino-4-benzofuran-2-yl-5-cyano-6-[3-(4-methylpiperazin-1-yl)propylamino]thieno[2,3-b]pyridine-2-carboxamide] | 63 nM |
| N#Cc1c(N)nc2sc(C(N)=O)c(N)c2c1-c1nc2ccccc2s1 [Compound A16, 3,6-Diamino-4-benzothiazol-2-y1-5-cyanothieno[2,3-b]pyridine-2-carboxamide] | 290 nM |
| N#Cc1c(NCC(O)CO)nc2sc(C(N)=O)c(N)c2c1-c1cc2ccccc2o1 (stereo not shown) [Compound A41, 3-Amino-4-benzofuran-2-yl-5-cyano-6-(2,3-dihydroxypropylamino)thieno[2,3-b]pyridine-2-carboxamide] | 180 nM |
